Assay results: patent US20240270748A1 (Merck Patent GmbH, priority 2021, published 2024)

Legend:
YAP-TEAD interaction = test: SK-HEP-1 reporter assay (8xTEAD responsive elements driving NanoLuc luciferase); assay type: cell-based
In short: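 Reporter read-out: NanoLuc luminescence from 8×TEAD elements stably integrated in SK-HEP-1 cells, after 24 h compound exposure at 37° C. Ten concentrations tested in duplicate, top 30 μM final, 0.3% DMSO; IC50 from curve.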

NCI-H226 cells = test: Viability assay in NCI-H226 (Yap-dependent) cells, CyQuant; assay type: cell-based, human; details: class symbols
In short: (§1)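 Seeded cells were dosed 24 h later in duplicate (10-point, 1:3 dilutions, top 30 μM final, 0.3% DMSO) and incubated 96 h at 37 °C. Viability was read with CyQUANT DNA dye after 1 h, fluorescence bottom read. NCI-H226 in RPMI 1640 medium; SW620 YAP/TAZ CRISPR knockout in DMEM/F-12 medium.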

SW620 Yap KO cells = test: Viability assay in SW620 Yap KO (Yap independent) cells, CyQuant; assay type: cell-based; details: Homo sapiens, SW-620, 96 h
In short: as §1

[1] = Homo sapiens, SK-HEP1, SK-HEP-1 reporter assay, n.d. = value not detectable below threshold given in parentheses
[2] = n.d. = value not detectable below threshold given in parentheses
[3] = Homo sapiens, SK-HEP1, SK-HEP-1 reporter assay, class symbols
[4] = n.d. = value not detectable below threshold given in parentheses, ND = not determinable within the entire range
[5] = Homo sapiens, SK-HEP1, SK-HEP-1 reporter assay, n.d. = value not detectable below threshold given in parentheses, ND = not determinable within the entire range

Row | IC50 (NCI-H226 cells; Homo sapiens, NCI-H226, 96 h) [nM] | IC50 (SW620 Yap KO cells; [2]) [nM] | IC50 (YAP-TEAD interaction; [3]) [nM] | IC50 (SW620 Yap KO cells; [4]) [nM] | Structure (SMILES) | also measured
1 | 100 to 1000 | > 3000 |  |  | Cn1cc2c3cc(C(=O)N=[S@@](=O)(CCCO)Cc4ccncc4)ccc3n(-c3ccc(C(F)(F)F)cc3)c2n1 (single isomer, unassigned) [Example C231] | IC50 (YAP-TEAD interaction; [1]): > 300 nM
2 | 1 to 100 | > 3000 |  |  | Cn1cc2c3cc(C(=O)N=S(=O)(CCO)Cc4ccncc4)ccc3n(-c3ccc(C(F)(F)F)cc3)c2n1 (stereo not drawn) [Example C216, N-[(2-hydroxyethyl)(oxo)[(pyridin-4-yl)methyl]-λ^6-sulfanylidene]-2-methyl-8-[4-(trifluoromethyl)phenyl]-2H,8H-pyrazolo[3,4-b]indole-5-carboxamide] | IC50 (YAP-TEAD interaction; [1]): > 9500 nM
3 | 1 to 100 |  | 10 to 100 | > 30000 | Cn1cc2c3cc(C4CC(Cl)=NO4)ccc3n(-c3ccc(C(F)(F)F)cc3)c2n1 (stereo not drawn) [Example C17, 3-chloro-5-{2-methyl-8-[4-(trifluoromethyl)phenyl]-2H,8H-pyrazolo[3,4-b]indol-5-yl}-4,5-dihydro-1,2-oxazole] | 
4 | 100 to 1000 |  |  |  | Cn1nc2c3cc(C(=O)N=[S@](=O)(CCCO)Cc4ccncc4)ccc3n(-c3ccc(C(F)(F)F)cc3)c2n1 (single isomer, unassigned) [Example C252] | IC50 (YAP-TEAD interaction; [1]): > 300 nM; IC50 (SW620 Yap KO cells; class symbols): 1000 to 10000 nM
5 | 100 to 1000 | > 3000 |  |  | Cn1nc2c3cc(C(=O)N=[S@](=O)(CCCO)Cc4cccnc4)ccc3n(-c3ccc(C(F)(F)F)cc3)c2n1 (single isomer, unassigned) [Example C202] | IC50 (YAP-TEAD interaction; [1]): > 300 nM
6 | 1 to 100 |  | 10 to 100 | > 30000 | CN(c1ccc2c(c1)c1cn(C)nc1n2-c1ccc(C(F)(F)F)cc1)S(C)(=O)=O [Example C20, N-methyl-N-{2-methyl-8-[4-(trifluoromethyl)phenyl]-2H,8H-pyrazolo[3,4-b]indol-5-yl}methanesulfonamide] | 
7 | 1 to 100 |  | 10 to 100 | > 30000 | Cc1c2c3cc(C(=O)N[C@H](C)CO)ccc3n(-c3ccc(C(F)(F)F)cc3)c2nn1C [Example C97, N-[(2R)-1-hydroxypropan-2-yl]-2,3-dimethyl-8-[4-(trifluoromethyl)phenyl]-2H,8H-pyrazolo[3,4-b]indole-5-carboxamide] | 
8 | 1 to 100 |  | 10 to 100 | > 30000 | Cn1nc2c3cc(C(=O)N=S(C)(=O)CCCO)ccc3n(-c3ccc(C(F)(F)F)cc3)c2n1 (stereo not drawn) [Example C25, N-[(3-hydroxypropyl)(methyl)oxo -¿6-sulfanylidene]-2-methyl-4-[4-(trifluoromethyl)phenyl]-2H,4H-[1,2,3]triazolo[4,5-b]indole-7-carboxamide] | 
9 | 1 to 100 |  | 10 to 100 | > 30000 | CON(C)C(=O)c1ccc2c(c1)c1cn(C)nc1n2-c1ccc(C(F)(F)F)cc1 [Example C156, N-methoxy-N,2-dimethyl-8-[4-(trifluoromethyl)phenyl]-2H,8H-pyrazolo[3,4-b]indole-5-carboxamide] | 
10 | 1 to 100 | > 3000 | 10 to 100 |  | Cn1nc2c3cc(C(=O)N[C@@H](CCO)c4ccccn4)ccc3n(-c3ccc(C(F)(F)F)cc3)c2n1 (single isomer, unassigned) [Example C242] | 
11 | 1 to 100 | > 3000 | 10 to 100 |  | C[C@@H](NC(=O)c1ccc2c(c1)c1nn(C)nc1n2-c1ccc(C(F)(F)F)cc1)c1cccc(N)n1 [Example C181, N-[(1R)-1-(6-aminopyridin-2-yl)ethyl]-2-methyl-4-[4-(trifluoromethyl)phenyl]-2H,4H-[1,2,3]triazolo[4,5-b]indole-7-carboxamide] | 
12 | 1 to 100 |  | 10 to 100 |  | CNC(=O)c1ccc2c(c1)c1c(C)snc1n2-c1ccc(C(F)(F)F)cc1 [Example C51, N,3-dimethyl-8-[4-(trifluoromethyl)phenyl]-8H-[1,2]thiazolo[3,4-b]indole-5-carboxamide] | IC50 (SW620 Yap KO cells; class symbols): 1000 to 10000 nM
13 | 1000 to 10000 |  | 10 to 100 | > 30000 | Cn1cc2c3cc(S(=O)(=O)NCCO)ccc3n(-c3ccc(C(F)(F)F)cc3)c2n1 [Example C57, N-(2-hydroxyethyl)-2-methyl-8-[4-(trifluoromethyl)phenyl]-2H,8H-pyrazolo[3,4-b]indole-5-sulfonamide] | 
14 | 1 to 100 | > 3200 | 10 to 100 |  | Cn1cc2c3cc(C(=O)N[C@@H](CO)c4ccccn4)ccc3n(-c3ccc(C(F)(F)F)c(F)c3)c2n1 [Example C169, 8-[3-fluoro-4-(trifluoromethyl)phenyl]-N-[(1R)-2-hydroxy-1-(pyridin-2-yl)ethyl]-2-methyl-2H,8H-pyrazolo[3,4-b]indole-5-carboxamide] | 
15 | 100 to 1000 |  | 10 to 100 | > 30000 | C[C@@H](NC(=O)c1ccc2c(c1)c1cn(C)nc1n2-c1ccc(C(F)(F)F)cc1)c1ccncc1 [Example C122, 2-methyl-N-[(1R)-1-(pyridin-4-yl)ethyl]-8-[4-(trifluoromethyl)phenyl]-2H,8H-pyrazolo[3,4-b]indole-5-carboxamide] | 
16 | 1 to 100 |  |  | > 3200 | Cc1snc2c1c1cc(C(=O)N=S(C)(=O)CCCO)ccc1n2-c1ccc(C(F)(F)F)cc1 (single isomer, unassigned) [Example C104] | IC50 (YAP-TEAD interaction; SK-HEP-1 reporter assay, class symbols): 10 to 100 nM
17 | 1 to 100 | > 3000 |  |  | Cn1cc2c3cc(C(=O)N=[S@](=O)(CCCO)Cc4ccncc4)ccc3n(-c3ccc(C(F)(F)F)cc3)c2n1 (single isomer, unassigned) [Example C236] | IC50 (YAP-TEAD interaction; [1]): > 95 nM
18 | 100 to 1000 |  |  | > 30000 | Cn1cc2c3nc(C(=O)N=S(C)(=O)CCCO)ccc3n(-c3ccc(C(F)(F)F)cc3)c2n1 (stereo not drawn) [Example C117, N-[(3-hydroxypropyl)(methyl)oxo- \6-sulfanylidene]-4-methyl-7-[4-(trifluoromethyl)phenyl]-4,5,7,12-tetraazatricyclo[6.4.0.0^2,6∧{2,6}]dodeca-1(8),2,5,9,11-pentaene-11-carboxamide] | IC50 (YAP-TEAD interaction; [5]): > 1000 nM
19 | 1 to 100 | > 3000 |  |  | Cn1nc2c3cc(C(=O)N=[S@@](=O)(CCCO)Cc4ccncc4)ccc3n(-c3ccc(C(F)(F)F)cc3)c2n1 (single isomer, unassigned) [Example C250] | IC50 (YAP-TEAD interaction; [1]): > 300 nM
20 | 1 to 100 | > 30000 | 10 to 100 |  | Cn1cnc2c1c1cc(C=O)ccc1n2-c1ccc(C(F)(F)F)cc1 [Example C174, 1-methyl-4-[4-(trifluoromethyl)phenyl]-1H,4H-imidazo[4,5-b]indole-7-carbaldehyde] | 
21 |  |  | 100 to 10000 | > 30000 | Cn1cc2c3cc(C(=O)NC(CO)c4ccccn4)ccc3n(-c3ccc(C(F)(F)F)nc3)c2n1 (single isomer, unassigned) [Example C123] | IC50 (NCI-H226 cells; 96 h): 100 to 1000 nM
22 | 100 to 1000 |  |  | > 3000 | Cn1cc2c3cc(NC(=O)c4ccncc4)ccc3n(-c3ccc(C(F)(F)F)cc3)c2n1 [Example C21, N-{2-methyl-8-[4-(trifluoromethyl)-phenyl]-2H,8H-pyrazolo[3,4-b]indol-5-yl}pyridine-4-carboxamide] | IC50 (YAP-TEAD interaction; [5]): > 1000 nM
23 | 100 to 1000 |  | 10 to 100 | > 30000 | O=C(O)c1ccc2c(c1)c1cn(C3CCCCO3)nc1n2-c1ccc(C(F)(F)F)cc1 (stereo not drawn) [Example C10, 2-(oxan-2-yl)-8-[4-(trifluoromethyl)phenyl]-2H,8H-pyrazolo[3,4-b]indole-5-carboxylic acid] | 
